For 14 compounds, IC50 results are on record in patent US20130310362A1, “FUSED PYRIMIDINES” (BAYER PHARMA AKTIEGESELLSCHAFT, priority 2009, published 2013).

For orientation: IC50 means the concentration at which inhibition is half-maximal.

The test system of assay [1] is Akt phosphorylation (Ser473) in MCF7 cells. Nature of the assay: Cellular PI3K/Akt pathway assay (Phospho-Akt1 (Ser473) sandwich ELISA). It is filed as cell-based. Conditions: Homo sapiens, β-Heregulin stimulated, 48 h incubation, read-out: IC50 p-Akt (Biological Assay 5.0). Background: ELISA stands for enzyme-linked immunosorbent assay.
Description: Biological Assay 5.0: Cellular PI3K/Akt Pathway Assay
In order to study the cellular activity of the compounds according to the present invention, an Enzyme Linked Immunosorbent Assay (ELISA)-based assay may be used to investigate the inhibitory effect on Akt phosphorylation.
The ELISA Kit detects endogenous levels of phosphorylated Akt protein. […] After incubation with cell lysates, the coated antibody captures the phosphorylated Akt protein. […] The magnitude of optical density for this developed color is proportional to the quantity of phosphorylated Akt protein. MCF7 cells (ATCC HTB-22) are seeded into 96 well fate bottom plates at a density of 10000 cells/well. 24 hours after seeding, the cells are serum starved using low-serum medium (IMEM media including 0.1% charcoal treated FCS (FCS: fetal calf serum)). After 24 hours 1 μl each of the compound dilutions (test compounds were dissolved as 10 mM solutions in dimethylsulfoxide (DMSO) and subsequently diluted) are added into each well of the 96 well plates and incubated for 48 h at 37° C. in a humidified athmosphere containing 5% CO2. To stimulate Akt phosphorylation, β-Heregulin (20 ng/mL β-HRG) is added in parallel to the compounds. Wells containing unstimulated control cells (no β-Heregulin stimulation) are incubated with or without the diluted compound. Wells containing untreated control cells (no compound) are filled with medium containing 0.5% v:v DMSO and are or are not stimulated with 3-Heregulin.
Cells are harvested and lysed with brief sonification in 1× cell lysis buffer (20 mM Tris (pH7.5), 150 mM NaCl, 1 mM ethylene diaminetetraacetate (EDTA), 1 mM ethylene glycolbis(2-aminoethyl)-N,N,N′,N′-tetraacetic acid (EGTA), 1 vol % Triton X-100, 2.5 mM sodium pyrophosphate, 1 mM β-glycerolphosphate, 1 mM Na3VO4, 1 μg/mL leupeptin). The lysate is centrifuged for 10 min. at 4° C. and the supernatant is transferred to a new tube. […] The absorbance is measured at λ=450 nm (Wallac Victor2; Perkin Elmer, USA) within 30 min. after adding the STOP solution. […]
For assay [2], the target named is T1, human recombinant kinase full-length Akt2 (Homo sapiens, UniProt P31751).
T1 construct: human recombinant kinase full-length Akt2; His; purchased Invitrogen PV 3975; host or cells: insect cells
T1 sequence (P31751 whole entry): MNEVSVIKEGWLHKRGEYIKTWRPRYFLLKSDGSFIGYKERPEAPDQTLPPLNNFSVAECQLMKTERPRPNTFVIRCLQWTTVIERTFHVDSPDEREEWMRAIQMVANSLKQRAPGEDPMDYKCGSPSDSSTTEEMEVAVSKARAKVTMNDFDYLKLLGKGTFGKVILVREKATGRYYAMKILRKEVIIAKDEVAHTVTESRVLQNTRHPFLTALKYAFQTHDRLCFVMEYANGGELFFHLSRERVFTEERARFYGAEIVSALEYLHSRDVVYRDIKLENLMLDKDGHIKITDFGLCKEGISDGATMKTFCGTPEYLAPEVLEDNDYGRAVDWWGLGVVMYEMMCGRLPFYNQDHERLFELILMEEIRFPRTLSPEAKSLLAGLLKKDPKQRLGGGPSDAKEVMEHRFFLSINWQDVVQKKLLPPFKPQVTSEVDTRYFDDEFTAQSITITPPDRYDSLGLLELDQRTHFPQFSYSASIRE
Put plainly: Akt2 kinase assay (TR-FRET). It is filed as biochemical. To be noted: Akt2 activated by PDK1, 10 μM ATP, 1 μM peptide substrate, 60 min at 22° C.; read-out: IC50 Akt2 (Biological Assay 2.0). The text has this: Biological Assay 2.0: Akt2 Kinase Assay
Akt2 inhibitory activity of compounds of the present invention was quantified employing the Akt2 TR-FRET assay as described in the following paragraphs.
(§1) His-tagged human recombinant kinase full-length Akt2 expressed in insect cells and activated by PDK1 was purchased form Invitrogen (part number PV 3975). As substrate for the kinase reaction the biotinylated peptide biotin-Ahx-KKLNRTLSFAEPG (C-terminus in amide form) was used which can be purchased e.g. from the company Biosynthan GmbH (Berlin-Buch, Germany). For the assay 50 nl of a 100 fold concentrated solution of the test compound in DMSO was pipetted into a black low volume 384 well microtiter plate (Greiner Bio-One, Frickenhausen, Germany), 2 μl of a solution of Akt2 in assay buffer [50 mM TRIS/HCl pH 7.5, 5 mM MgCl2, 1 mM dithiothreitol, 0.02% (v/v) Triton X-100 (Sigma)] were added and the mixture was incubated for 15 min at 22° C. to allow pre-binding of the test compounds to the enzyme before the start of the kinase reaction. Then the kinase reaction was started by the addition of 3 μl of a solution of adenosine-tri-phosphate (ATP, 16.7 μM=>final conc. in the 5 μl assay volume is 10 μM) and substrate (1.67 μM=>final conc. in the 5 μl assay volume is 1 μM) in assay buffer and the resulting mixture was incubated for a reaction time of 60 min at 22° C. The concentration of Akt2 in the assay was adjusted depending of the activity of the enzyme lot and was chosen appropriate to have the assay in the linear range, typical enzyme concentrations were in the range of about 0.2 ng/μl (final conc. in the 5 μl assay volume).
(§2) The reaction was stopped by the addition of 5 μl of a solution of HTRF detection reagents (200 nM streptavidine-XL665 [Cisbio] and 1.5 nM anti-phosho-Serine antibody [Millipore, cat. #35-001] and 0.75 nM LANCE Eu-W 1024 labeled anti-mouse IgG antibody [Perkin Elmer]) in an aqueous EDTA-solution (100 mM EDTA, 0.1% (w/v) bovine serum albumin in 50 mM HEPES/NaOH pH 7.5). The resulting mixture was incubated 1 h at 22° C. to allow the binding of the biotinylated phosphorylated peptide to the streptavidine-XL665 and the antibodies. Subsequently the amount of phosphorylated substrate was evaluated by measurement of the resonance energy transfer from the anti-mouse-IgG-Eu-Chelate to the streptavidine-XL665. Therefore, the fluorescence emissions at 620 nm and 665 nm after excitation at 350 nm was measured in a TR-FRET reader, e.g. a Rubystar (BMG Labtechnologies, Offenburg, Germany) or a Viewlux (Perkin-Elmer). The ratio of the emissions at 665 nm and at […] was taken as the measure for the amount of phosphorylated substrate. The data were normalised (enzyme reaction without inhibitor=0% inhibition, all other assay components but no enzyme=100% inhibition).
For orientation: TR-FRET usually uses a lanthanide donor and a delayed reading to cut background.

The target in assay [3] is T2, human recombinant kinase full-length Akt1 (Homo sapiens, UniProt P31749).
T2 construct: human recombinant kinase full-length Akt1; His; purchased Invitrogen PV 3599; host or cells: insect cells
T2 sequence (P31749 whole entry): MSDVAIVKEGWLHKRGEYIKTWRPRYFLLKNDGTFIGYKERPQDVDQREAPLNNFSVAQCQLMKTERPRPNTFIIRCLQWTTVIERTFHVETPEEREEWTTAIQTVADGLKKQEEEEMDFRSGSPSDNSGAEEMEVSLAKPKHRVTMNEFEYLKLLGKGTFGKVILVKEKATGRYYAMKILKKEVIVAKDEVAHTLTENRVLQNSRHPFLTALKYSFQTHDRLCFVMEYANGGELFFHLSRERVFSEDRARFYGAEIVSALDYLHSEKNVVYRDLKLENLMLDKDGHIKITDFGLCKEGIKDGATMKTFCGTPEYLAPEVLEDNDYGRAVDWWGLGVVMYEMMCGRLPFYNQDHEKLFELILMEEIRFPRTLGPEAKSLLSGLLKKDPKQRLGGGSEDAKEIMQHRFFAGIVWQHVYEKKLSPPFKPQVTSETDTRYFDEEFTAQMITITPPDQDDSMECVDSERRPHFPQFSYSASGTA
Put plainly: Akt1 kinase assay (TR-FRET). To be noted: 10 μM ATP, 1 μM peptide substrate, 60 min at 22° C.; read-out: IC50 Akt1 Biological Assay 1.0). In kind it is biochemical.
Source text: Biological Assay 1.0: Akt1 Kinase Assay
Akt1 inhibitory activity of compounds of the present invention may be quantified employing the Akt1 TR-FRET assay as described in the following paragraphs.
His-tagged human recombinant kinase full-length Akt1 expressed in insect cells was purchased form Invitrogen (part number PV 3599). As substrate for the kinase reaction the biotinylated peptide biotin-Ahx-KKLNRTLSFAEPG (C-terminus in amide form) was used which can be purchased e.g. from the company Biosynthan GmbH (Berlin-Buch, Germany).
as §1, with “For” for “His-tagged human recombinant kinase full-length Akt2 expressed in insect cells and activated by PDK1 was purchased form Invitrogen (part number PV 3975). As substrate for the kinase reaction the biotinylated peptide biotin-Ahx-KKLNRTLSFAEPG (C-terminus in amide form) was used which can be purchased e.g. from the company Biosynthan GmbH (Berlin-Buch, Germany). For”, “Akt1” for “Akt2”, “0.05” for “0.2”
as §2, with “HTRF” for “TR-FRET”, “inhibition). Normally test compound were tested on the same microtiter plate at 10 different concentrations in the range of 20 μM to 1 nM (20 μM, 6.7 μM, 2.2 μM, 0.74 μM, 0.25 μM, 82 nM, 27 nM, 9.2 nM, 3.1 nM and 1 nM, dilution series prepared before the assay at the level of the 100 fold conc. stock solutions by serial 1:3 dilutions) in duplicate values for each concentration and […] were calculated by a 4 parameter fit using an inhouse software.” for “inhibition).”

Molecules are shown by their SMILES.

`Cc1nnc2c(-c3ccccc3)c(-c3ccc(CN4CCC(c5n[nH]c(-c6ccccn6)n5)CC4)cc3)ncn12` [Example 4.0, 3-methyl-8-phenyl-7-{4-[4-(5-pyridin-2-yl-1H-[1,2,4]triazol-3-yl)-piperidin-1-ylmethyl]-phenyl}-[1,2,4]triazolo[4,3-c]pyrimidine]: the half-inhibitory concentration (IC50) in assay [1] was under 500 nM. Regarding `Cc1ccc(-c2nc(C3CCN(Cc4ccc(-c5nc(C)n6ccnc6c5-c5ccccc5)cc4)CC3)n[nH]2)nc1C` [Example 5.0, 7-(4-{4-[5-(5,6-dimethyl-pyridin-2-yl)-1H-[1,2,4]triazol-3-yl]-piperidin-1-ylmethyl}-phenyl)-5-methyl-8-phenyl-imidazo[1,2-c]pyrimidine], the IC50 in assay [2] is 27 nM; in assay [3], 3 nM. Regarding `Cc1nc(-c2ccc(CN3CC(c4n[nH]c(-c5ccccn5)n4)C3)cc2)c(-c2ccccc2)c2nccn12` [Example 6.0, 5-methyl-8-phenyl-7-{4-[3-(5-pyridin-2-yl-1H-[1,2,4]triazol-3-yl)-azetidin-1-ylmethyl]-phenyl}-imidazo[1,2-c]pyrimidine], the IC50 in assay [2] worked out at 81 nM; in assay [3], 3 nM.

In the case of `Cc1nc(-c2ccc(CN3CCC(c4n[nH]c(-c5cnccn5)n4)CC3)cc2)c(-c2ccccc2)c2nccn12` [Example 7.0, 5-methyl-8-phenyl-7-{4-[4-(5-pyrazin-2-yl-1H-[1,2,4]triazol-3-yl)-piperidin-1-ylmethyl]-phenyl}-imidazo[1,2-c]pyrimidine], the IC50 was 334 nM in assay [2] and 12 nM in assay [3]. For the compound `Cc1nc(-c2ccc(CN3CCC(c4n[nH]c(-c5ncccn5)n4)CC3)cc2)c(-c2ccccc2)c2nccn12` [Example 8.0, 5-methyl-8-phenyl-7-{4-[4-(5-pyrimidin-2-yl-1H-[1,2,4]triazol-3-yl)-piperidin-1-ylmethyl]-phenyl}-imidazo[1,2-c]pyrimidine], the figures for the IC50 in assay [2] and in assay [3] were 414 nM and 14 nM, respectively. For `Brc1ccc(-c2nc(C3CCN(Cc4ccc(-c5ncn6ccnc6c5-c5ccccc5)cc4)CC3)n[nH]2)nc1` [Example 9.0, 7-(4-{4-[5-(5-bromo-pyridin-2-yl)-1H-[1,2,4]triazol-3-yl]-piperidin-1-ylmethyl}-phenyl)-8-phenyl-imidazo[1,2-c]pyrimidine] the same measures were 185 nM and 18 nM.

With `Cc1ccc(-c2nc(C3CCN(Cc4ccc(-c5ncn6ccnc6c5-c5ccccc5)cc4)CC3)n[nH]2)nc1C` [Example 10.0, 7-(4-{4-[5-(5,6-dimethyl-pyridin-2-yl)-1H-[1,2,4]triazol-3-yl]-piperidin-1-ylmethyl}-phenyl)-8-phenyl-imidazo[1,2-c]pyrimidine], the IC50 in assay [2] turned out to be 38 nM; in assay [3], 7 nM.

For the compound `c1ccc(-c2c(-c3ccc(CN4CCC(c5n[nH]c(-c6cnccn6)n5)CC4)cc3)ncn3ccnc23)cc1` [Example 11.0, 8-phenyl-7-{4-[4-(5-pyrazin-2-yl-1H-[1,2,4]triazol-3-yl)-piperidin-1-ylmethyl]-phenyl}-imidazo[1,2-c]pyrimidine], the 50% inhibitory concentration (IC50) was 445 nM in assay [2] and 29 nM in assay [3]. In the same order, the values of `Fc1ccc(-c2nc(C3CCN(Cc4ccc(-c5ncn6ccnc6c5-c5ccccc5)cc4)CC3)n[nH]2)nc1` [Example 11.1, 7-(4-{4-[5-(5-fluoro-pyridin-2-yl)-1H-[1,2,4]triazol-3-yl]-piperidin-1-ylmethyl}-phenyl)-8-phenyl-imidazo[1,2-c]pyrimidine] are 98 nM and 19 nM. Consider `Cc1ccc(-c2nc(C3CCN(Cc4ccc(-c5ncn6ccnc6c5-c5ccccc5)cc4)CC3)n[nH]2)nc1` [Example 12.0, 7-(4-{4-[5-(5-methyl-pyridin-2-yl)-1H-[1,2,4]triazol-3-yl]-piperidin-1-ylmethyl}-phenyl)-8-phenyl-imidazo[1,2-c]pyrimidine], for which the IC50 in assay [2] came out at 50 nM; in assay [3], 8 nM. On to `Clc1cccc(-c2nc(C3CCN(Cc4ccc(-c5ncn6ccnc6c5-c5ccccc5)cc4)CC3)n[nH]2)n1` [Example 13.0, 7-(4-{4-[5-(6-chloro-pyridin-2-yl)-1H-[1,2,4]triazol-3-yl]-piperidin-1-ylmethyl}-phenyl)-8-phenyl-imidazo[1,2-c]pyrimidine], for which the IC50 in assay [2] was determined as 132 nM; in assay [3] it was 16 nM. On to `Cc1cc(C)nc(-c2nc(C3CCN(Cc4ccc(-c5ncn6ccnc6c5-c5ccccc5)cc4)CC3)n[nH]2)c1` [Example 14.0, 7-(4-{4-[5-(4,6-dimethyl-pyridin-2-yl)-1H-[1,2,4]triazol-3-yl]-piperidin-1-ylmethyl}-phenyl)-8-phenyl-imidazo[1,2-c]pyrimidine], for which the IC50 in assay [2] is 16 nM; in assay [3] it was 7 nM. With `FC(F)(F)c1ccnc(-c2nc(C3CCN(Cc4ccc(-c5ncn6ccnc6c5-c5ccccc5)cc4)CC3)n[nH]2)c1` [Example 15.0, 8-phenyl-7-(4-{4-[5-(4-trifluoromethyl-pyridin-2-yl)-1H-[1,2,4]triazol-3-yl]-piperidin-1-ylmethyl}-phenyl)-imidazo[1,2-c]pyrimidine], the concentration for half-maximal inhibition (IC50) stood at 222 nM in assay [2] and 22 nM in assay [3].

As for `c1ccc(-c2c(-c3ccc(CN4CC(c5n[nH]c(-c6ccccn6)n5)C4)cc3)ncn3ccnc23)cc1` [Example 16.0, 8-phenyl-7-{4-[3-(5-pyridin-2-yl-1H-[1,2,4]triazol-3-yl)-azetidin-1-ylmethyl]-phenyl}-imidazo[1,2-c]pyrimidine], the values for the IC50 in assay [2] and in assay [3] were 52 nM and 12 nM, respectively.
